Columns and labels:
[1] = system: iCasp9-transduced, CD19-selected allodepleted T cells; assay: Induction of apoptosis with AP20187 in gene-modified allodepleted T cells (annexin V/7-AAD); assay type: cell-based, human
Procedure: Suicide gene functionality was assessed by adding a small molecule synthetic homodimerizer, AP20187 (Ariad Pharmaceuticals; Cambridge, Mass.), at 10 nM final concentration the day following CD19 immunomagnetic selection. Cells were stained with annexin V and 7-amino-actinomycin (7-AAD)(BD Pharmingen) at 24 hours and analyzed by flow cytometry. Cells negative for both annexin V and 7-AAD were considered viable, cells that were annexin V positive were apoptotic, and cells that were both annexin V and 7-AAD positive were necrotic. The percentage killing induced by dimerization was corrected for baseline viability as follows: Percentage killing=100%−(% Viability in AP20187-treated cells÷% Viability in nontreated cells).
Cells were maintained in T cell medium containing 50 U/ml IL-2 until 22 days after transduction. A portion of cells was reactivated on 24-well plates coated with […] OKT3 and 1 µg/ml anti-CD28 (Clone CD28.2, BD Pharmingen, San Jose, Calif.) for 48 to 72 hours. CD19 expression and suicide gene function in both reactivated and non-reactivated cells were measured on day 24 or 25 post transduction.
The day following immunomagnetic selection, 10 nM of the chemical inducer of dimerization, AP20187, was added to induce apoptosis, which appeared within 24 hours. […] Killing efficiency after correction for baseline viability was about 92.9%±3.8%. Large-scale CD19 selection produced cells that were killed with similar efficiency as small-scale selection: mean viability with and without AP20187, and percentage killing, in large and small scale were about 3.9%, about 84.0%, about 95.4% (n=3) and about 6.6%, about 79.3%, about 91.4% (n=5) respectively. AP20187 was non-toxic to non-transduced cells: viability with and without AP20187 was about 86%±9% and 87%±8% respectively (n=6).
To assess the stability of transgene expression and function, cells were maintained in T cell culture medium and low dose IL-2 (50 U/ml) until 24 days after transduction. A portion of cells was then reactivated with OKT3/anti-CD28. CD19 expression was analyzed by flow cytometry 48 to 72 hours later, and suicide gene function was assessed by treatment with 10 nM AP20187. The obtained are for cells from day 5 post transduction (ie, 1 day after CD 19 selection) and day 24 post transduction, with or without 48-72 hours of reactivation (5 experiments). In 2 experiments, CD25 selection was performed after OKT3/αCD28 activation to further enrich activated cells. Error bars represent standard deviation. * indicates p<0.05 when compared to cells from day 5 post transduction. By day 24, surface CD19 expression fell from about 98%±1% to about 88%±4% (p<0.05) with a parallel decrease in mean fluorescence intensity (MFI) from 793±128 to 478±107 (p<0.05) (see FIG. 13B). Similarly, there was a significant reduction in suicide gene function: residual viability was 19.6±5.6% following treatment with AP20187; after correction for baseline viability of 54.8±20.9%, this equated to killing efficiency of only 63.1±6.2%.

[2] = system: iCasp9M.IRES.IL-12-transduced EBV-CTLs; assay: IL-12 ELISA of iCasp9M.I.IL-12-transduced EBV-CTL supernatant; assay type: cell-based, human; settings: 10 nM CID; detection limit 7.8 pg/mL
Procedure: The concentration of interferon-[…] (IFN-[…]), IL-2, IL-4, IL-5, IL-10, and tumor necrosis factor-[…] (TNF[…]) in CTL culture supernatants was measured using the Human Th1/Th2 cytokine cytometric Bead Array (BD Pharmingen) and the concentration of IL-12 in the culture supernatants was measured by enzyme-linked immunosorbent assay (ELISA; R&D Systems, Minneapolis, Minn.) according to the instructions of the manufacturer.
To determine whether iCasp9M could effectively destroy cells genetically modified to express an active transgene product, the ability of iCasp9M to eliminate EBV-CTLs stably expressing IL-12 was measured. While IL-12 was undetectable in the supernatant of nontransduced and iCasp9M.IRES.GFP-transduced CTLs, the supernatant of iCasp9M.IRES.IL-12-transduced cells contained 324 pg/mL to 762 pg/mL IL-12. After administration of 10 nM CID, however, the IL-12 in the supernatant fell to undetectable levels (<7.8 pg/mL). Thus, even without prior sorting for high transgene expressing cells, activation of iCasp9M is sufficient to completely eliminate all T cells producing biologically relevant levels of IL-12. […] Three days after a second antigenic stimulation, the levels of IL-12 in the culture supernatant were measured by IL-12 ELISA (detection limit of this assay is 7.8 pg/mL). […]

[3] = system: iRmC9 T cells (pBP1327, GFP-Fluc); assay: In vivo apoptotic activation in NSG mice, iRmC9 T cells (IVIS imaging, spleen FACS); parameters: species or system mouse; settings: 5 mg/kg rimiducid or 10 mg/kg rapamycin i.p.
Procedure: PBMCs from donor 676 were activated and co-transduced with one of the off-switches and GFP-Fluc retroviruses. Eleven days after transduction, cells were analyzed for transduction efficiency with GFP and anti-CD3/anti-CD19 antibodies (FIG. 109A). […] The CD19^+ MFI for the different T cell populations were: iC9=15.07, iRC9=14.38, and iRmC9=13.39. The cells were collected, counted, washed, and resuspended at 1×10^6 cells in 100 μl PBS for each tail vein mouse injection (Table 10) (time=−18 hr). […] IVIS imaging was performed at −14, 0, 5, 24 and 29 hours. Mice were sacrificed and spleens were collected for FACS analysis with hCD3, hCD19 and mCD45 antibodies. […] The higher percentage of remaining iRmC9 T cells observed may be due to an artifact of normalizing the no drug group.
PBMCs from donor 676 were activated and co-transduced with retroviruses encoding the pBP0220, 1310, 1327 vectors and the GFP-Fluc plasmid. (FIG. 109A) Eleven days post transduction, the cells were analyzed for CD19 and GFP transduction efficiency prior to injection into mice. (FIGS. 109B & C) NSG mice were injected i.v. with 107 T cells co-transduced with GFP-Fluc per mouse and suicide drugs were injected i.p. the next day. Bioluminescence of cells was assessed at −14, 0, 5, 24, and 29 hours post-drug administration. (FIG. 109D) At 29-h post-drug treatment, mice were euthanized and spleens were collected for flow cytometry analysis with antibodies to hCD3, […], and mCD45

[4] = 10 nM AP20187, day after CD19 selection
[5] = day 24 post transduction, non-reactivated
[6] = large-scale CD19 selection (n=3)
[7] = small-scale CD19 selection (n=5)

Structure (SMILES) | killing efficiency after correction for baseline viability [1, 4] | viable cells (annexin V and 7-AAD negative) at 24 hours [1, 4] | killing ([1]; CD25 negative fraction after reactivation) [%] | killing efficiency ([1]; OKT3/αCD28-reactivated cells, day 24 or 25) | killing efficiency ([1]; day 5 post transduction) [%] | killing efficiency [1, 5] [%] | residual viability following AP20187 [1, 5] [%] | apoptosis after treatment with dimerizer ([1]; iCasp9-modified donor T cells) [%] | mean viability with AP20187 [1, 6] | percentage killing [1, 6] | mean viability with AP20187 [1, 7] | percentage killing [1, 7] | IL-12 in the supernatant after CID [2] [pg/mL] | iRmC9 T cells remained in splenocytes (normalized to no drug group) ([3]; spleen FACS, FIG. 109D) [%] | removal of iRmC9 T cells (IVIS imaging) ([3]; NSG mice, FIGS. 109B & C)
CC[C@H](C(=O)N1CCCC[C@H]1C(=O)O[C@H](CCc1ccc(OC)c(OC)c1)c1cccc(OCC(=O)NCC(CNC(=O)COc2cccc([C@@H](CCc3ccc(OC)c(OC)c3)OC(=O)[C@@H]3CCCCN3C(=O)[C@@H](CC)c3cc(OC)c(OC)c(OC)c3)c2)CN(C)C)c1)c1cc(OC)c(OC)c(OC)c1 [AP20187] | about 92.9%±3.8 | about 5.5%±2.5 | 78.6±9.1 | ~84.6%±8.0 | 93.1±3.5 | 63.1±6.2 | 19.6±5.6 | > 90 | about 3.9% | about 95.4% | about 6.6% | about 91.4% | < 7.8 |  | 
CC[C@H](C(=O)N1CCCC[C@H]1C(=O)O[C@H](CCc1ccc(OC)c(OC)c1)c1cccc(OCC(=O)NCCNC(=O)COc2cccc([C@@H](CCc3ccc(OC)c(OC)c3)OC(=O)[C@@H]3CCCCN3C(=O)[C@@H](CC)c3cc(OC)c(OC)c(OC)c3)c2)c1)c1cc(OC)c(OC)c(OC)c1 [rimiducid] |  |  |  |  |  |  |  |  |  |  |  |  |  | ~50 | induced significant removal

Reference: US20230065562A1, “DUAL CONTROLS FOR THERAPEUTIC CELL ACTIVATION OR ELIMINATION” (Bellicum Pharmaceuticals, Inc., priority 2015, published 2023)
